ChEMBL document CHEMBL1201862, “PubChem BioAssay data set” (2004)
The source made the active and inactive calls.

Assays:
[1] = target: Eukaryotic translation initiation factor 4H (Homo sapiens, UniProt Q15056); experiment: eIF4H binding inhibition – biochemical, uHTS, fluorescence polarization, translation initiation inhibitor project, primary screen (AID 2012)
[2] = target: T1, RNA-binding protein pos-1 (Caenorhabditis elegans, UniProt G5EF15); experiment: disruptors of C. elegans POS-1 RNA interaction – biochemical, fluorescence polarization, dose response (AID 1964);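 also: purified POS-1 fused to maltose binding protein made in E. coli; potency of compounds blocking POS-1 binding to fluorescent RNA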
T1 sequence (G5EF15 whole entry): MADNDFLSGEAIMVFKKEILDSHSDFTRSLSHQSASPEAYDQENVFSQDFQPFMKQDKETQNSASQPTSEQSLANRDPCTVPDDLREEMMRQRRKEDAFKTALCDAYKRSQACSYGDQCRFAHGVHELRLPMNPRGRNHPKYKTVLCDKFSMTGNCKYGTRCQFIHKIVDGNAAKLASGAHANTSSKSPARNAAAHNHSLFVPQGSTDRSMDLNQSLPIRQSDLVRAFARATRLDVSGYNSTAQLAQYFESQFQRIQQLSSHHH

[3] = target: T2, Zinc finger protein mex-5 (Caenorhabditis elegans, UniProt Q9XUB2); experiment: potency of MEX-5 RNA-binding blockers – biochemical, C. elegans, fluorescence polarization, dose response (AID 1960)
T2 sequence (Q9XUB2 whole entry): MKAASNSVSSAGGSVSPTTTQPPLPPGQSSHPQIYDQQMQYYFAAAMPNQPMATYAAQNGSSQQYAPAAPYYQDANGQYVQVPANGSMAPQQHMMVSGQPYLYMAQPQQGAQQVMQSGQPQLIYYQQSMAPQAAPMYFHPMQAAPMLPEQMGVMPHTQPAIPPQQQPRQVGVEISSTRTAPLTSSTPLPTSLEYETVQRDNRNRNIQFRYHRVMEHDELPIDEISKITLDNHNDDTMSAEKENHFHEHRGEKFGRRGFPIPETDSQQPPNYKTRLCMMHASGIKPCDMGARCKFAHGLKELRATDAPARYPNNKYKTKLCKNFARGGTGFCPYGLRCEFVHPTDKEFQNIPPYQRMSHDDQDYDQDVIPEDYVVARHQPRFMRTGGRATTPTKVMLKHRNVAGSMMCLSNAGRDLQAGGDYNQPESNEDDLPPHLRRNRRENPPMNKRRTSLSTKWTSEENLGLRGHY

[4] = target: Polyadenylate-binding protein 1 (Homo sapiens, UniProt P11940); experiment: blockers of PABP interaction with poly(A) – biochemical, fluorescence polarization, […] (AID 2014)
[5] = target: T3, Epstein-Barr nuclear antigen 1 (Epstein-Barr virus (strain B95-8) (HHV-4) (Human herpesvirus 4), UniProt P03211); experiment: inhibition of EBV nuclear antigen 1 DNA binding – biochemical, fluorescence polarization, 1536-well, dose response (AID 2381); design: species or system human gammaherpesvirus 4;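 also: fluorescence polarization of a Cy5 DNA probe bound by EBNA-1 protein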
T3 sequence (P03211 whole entry): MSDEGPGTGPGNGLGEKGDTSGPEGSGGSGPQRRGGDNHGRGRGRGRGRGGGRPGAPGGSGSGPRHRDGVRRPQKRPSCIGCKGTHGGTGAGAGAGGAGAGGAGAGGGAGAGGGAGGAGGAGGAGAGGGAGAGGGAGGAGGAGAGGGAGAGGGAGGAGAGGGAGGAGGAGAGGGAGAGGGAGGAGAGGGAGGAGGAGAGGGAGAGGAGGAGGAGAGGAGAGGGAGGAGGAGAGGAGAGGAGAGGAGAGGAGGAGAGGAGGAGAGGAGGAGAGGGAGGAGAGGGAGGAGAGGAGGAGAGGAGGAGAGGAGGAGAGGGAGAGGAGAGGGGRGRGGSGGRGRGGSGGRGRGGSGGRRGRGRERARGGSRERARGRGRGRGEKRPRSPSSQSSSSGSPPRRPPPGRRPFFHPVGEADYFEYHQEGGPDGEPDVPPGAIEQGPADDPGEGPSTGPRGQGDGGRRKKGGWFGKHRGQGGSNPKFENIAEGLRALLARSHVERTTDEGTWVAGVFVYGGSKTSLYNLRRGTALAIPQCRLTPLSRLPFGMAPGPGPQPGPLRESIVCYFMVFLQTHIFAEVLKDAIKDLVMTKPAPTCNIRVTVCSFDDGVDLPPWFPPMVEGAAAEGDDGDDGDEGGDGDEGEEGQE

[6] = target: T4, Lytic switch protein BZLF1 (Epstein-Barr virus (strain B95-8) (HHV-4) (Human herpesvirus 4), UniProt P03206); experiment: inhibition of BZLF1 ZTA DNA binding – biochemical, fluorescence polarization, Epstein-Barr virus, 1536-well, counter-screen for EBNA-1 inhibitor project, dose response (AID 2377); design: species or system human gammaherpesvirus 4;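 also: fluorescence polarization of Cy5-labelled ZRE DNA probe bound by purified Zta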
T4 sequence (P03206 whole entry): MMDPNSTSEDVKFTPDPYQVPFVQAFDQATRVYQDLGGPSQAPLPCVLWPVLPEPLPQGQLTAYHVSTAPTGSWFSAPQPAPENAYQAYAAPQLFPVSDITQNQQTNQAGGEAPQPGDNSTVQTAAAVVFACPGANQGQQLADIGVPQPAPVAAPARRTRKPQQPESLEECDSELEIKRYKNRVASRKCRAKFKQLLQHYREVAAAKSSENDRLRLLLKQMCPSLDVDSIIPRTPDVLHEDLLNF

[7] = Luminescence Cell-Based Dose Retest to Confirm Inhibitors of Cancer Stem Cells. [Related pubchem assays (depositor defined):AID2717, AID2721]; assay type: functional; conditions: Homo sapiens
[8] = target: Neurotensin receptor type 1 (Homo sapiens, UniProt P30989); assay type: functional;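 also: Image-based confirmatory dose-response assay measuring agonist activity at NTR1; NTR1-expressing U2OS osteosarcoma cells imaged for beta-arrestin GFP spot formation; agonist potency where compounds increase beta-arrestin recruitment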
[9] = target: Luciferin 4-monooxygenase (Photinus pyralis, UniProt P08659); experiment: Counter Screen for Luciferase-based Assay Positives. [Related pubchem assays: 620, 618, 411 ]
HT-1080 = experiment: HT1080 cell viability loss – fluorescence readout (AID 620); assay type: functional, cell-based; conditions: Homo sapiens
[10] = target: Voltage-dependent T-type calcium channel subunit alpha-1H (Homo sapiens, UniProt O95180); assay type: functional;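 also: channel activity triggered by adding a high calcium stimulation buffer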
[11] = HEK-293T cell viability reduction – luminescence, B-cell screen hits, cytotoxicity control for BCR NF-kB inhibitor project, dose response (AID 489021); assay type: functional, cell-based;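 also: HEK-293T cells carrying an NF-kB luciferase reporter; cells exposed to compound for about 14 hours before viability readout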
[12] = luciferase reporter signal suppression in cells – H4 neuroglioma cells, luminescence, dose response (AID 1990); assay type: functional, cell-based
[13] = Luminescence Cell-Based Dose Response HTS to Identify Inhibitors of 5'UTR Stem-Loop Driven Prion Protein mRNA Translation in H4 Neuroglioblastoma Cells. [Related pubchem assays: 1827 (Project Summary), 1813 (Primary HTS)]; assay type: functional
[14] = alpha-synuclein stem-loop luciferase translation blockers – H4 neuroglioma cells, luminescence, confirmation (AID 1988); assay type: functional, cell-based
Aminopeptidase N = target: T5, Aminopeptidase N (Plasmodium falciparum FcB1/Columbia, UniProt O96935); experiment: malaria alanyl aminopeptidase activity blockers – biochemical, fluorogenic H-Leu-NHMec substrate, 1536-well (AID 1445); design: species or system Plasmodium falciparum 3D7, 3D7
T5 sequence (O96935 whole entry): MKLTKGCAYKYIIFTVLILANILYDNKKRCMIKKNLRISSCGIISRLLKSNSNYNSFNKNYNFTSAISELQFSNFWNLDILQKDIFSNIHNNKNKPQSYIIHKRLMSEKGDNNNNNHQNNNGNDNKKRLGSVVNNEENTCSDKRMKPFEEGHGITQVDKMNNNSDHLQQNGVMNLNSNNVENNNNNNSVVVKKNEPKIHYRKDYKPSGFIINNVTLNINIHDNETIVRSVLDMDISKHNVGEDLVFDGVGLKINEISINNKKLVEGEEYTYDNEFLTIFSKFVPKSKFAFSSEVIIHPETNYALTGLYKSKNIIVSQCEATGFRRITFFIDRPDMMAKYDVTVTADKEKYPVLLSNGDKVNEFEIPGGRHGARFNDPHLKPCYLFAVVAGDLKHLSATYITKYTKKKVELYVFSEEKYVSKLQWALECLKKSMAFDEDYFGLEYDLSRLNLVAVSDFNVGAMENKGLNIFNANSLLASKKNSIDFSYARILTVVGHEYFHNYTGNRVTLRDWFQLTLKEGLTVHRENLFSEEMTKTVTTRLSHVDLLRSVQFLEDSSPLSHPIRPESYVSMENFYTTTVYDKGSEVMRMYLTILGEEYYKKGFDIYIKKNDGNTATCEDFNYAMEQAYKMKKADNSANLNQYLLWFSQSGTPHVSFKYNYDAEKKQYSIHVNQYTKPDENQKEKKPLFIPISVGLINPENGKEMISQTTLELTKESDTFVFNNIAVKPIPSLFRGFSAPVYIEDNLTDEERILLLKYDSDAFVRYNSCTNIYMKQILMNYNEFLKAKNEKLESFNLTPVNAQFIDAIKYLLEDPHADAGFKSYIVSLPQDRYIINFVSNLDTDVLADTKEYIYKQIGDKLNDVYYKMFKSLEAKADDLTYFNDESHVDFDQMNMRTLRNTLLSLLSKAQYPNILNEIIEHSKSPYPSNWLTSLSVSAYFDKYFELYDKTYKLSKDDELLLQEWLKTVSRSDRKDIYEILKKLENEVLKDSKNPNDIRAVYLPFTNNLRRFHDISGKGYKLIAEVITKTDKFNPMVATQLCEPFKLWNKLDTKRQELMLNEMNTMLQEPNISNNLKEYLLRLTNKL

[15] = A Cell Based Secondary Assay To Explore Cytotoxicity of Compounds that Sensitize Mycobacterium Tuberculosis to Beta-Lactam Antibiotics.; assay type: functional
Coagulation factor XII = target: T6, Coagulation factor XII (Homo sapiens, UniProt P00748); assay type: functional;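 also: activated factor XIIa alpha cleaving a fluorogenic AMC peptide substrate; inhibitor potency from loss of enzyme activity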
T6 sequence (P00748 whole entry): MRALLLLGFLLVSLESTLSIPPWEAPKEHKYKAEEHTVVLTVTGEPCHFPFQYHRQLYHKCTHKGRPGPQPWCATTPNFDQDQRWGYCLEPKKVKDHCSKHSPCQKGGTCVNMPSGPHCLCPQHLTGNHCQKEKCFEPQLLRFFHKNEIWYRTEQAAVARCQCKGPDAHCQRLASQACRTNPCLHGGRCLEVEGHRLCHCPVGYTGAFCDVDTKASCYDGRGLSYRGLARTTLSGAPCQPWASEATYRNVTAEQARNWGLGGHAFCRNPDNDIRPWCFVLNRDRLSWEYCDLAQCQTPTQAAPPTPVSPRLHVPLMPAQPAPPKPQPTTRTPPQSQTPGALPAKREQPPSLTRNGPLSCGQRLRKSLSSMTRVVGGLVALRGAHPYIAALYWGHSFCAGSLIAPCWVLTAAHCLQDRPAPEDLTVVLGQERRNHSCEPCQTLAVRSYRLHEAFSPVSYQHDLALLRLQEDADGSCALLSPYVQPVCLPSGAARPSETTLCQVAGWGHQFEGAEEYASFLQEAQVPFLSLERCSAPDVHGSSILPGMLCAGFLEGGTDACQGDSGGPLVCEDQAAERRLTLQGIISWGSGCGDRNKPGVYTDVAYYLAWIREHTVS

[16] = target: G-protein coupled receptor 35 (Homo sapiens, UniProt Q9HC97); experiment: inhibition of zaprinast-stimulated GPR35 beta-arrestin translocation – imaging, U2OS, beta-arrestin-GFP, zaprinast agonist, primary screen (AID 2058); assay type: functional;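 also: antagonist potency meaning inhibition of agonist-induced arrestin redistribution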
HeLa = experiment: viability loss in HeLa cells – cell-based, 24 h, cherry-picked samples, cytotoxicity control, dose response (AID 504726); assay type: functional; conditions: Homo sapiens;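 also: potency for cytotoxicity as loss of luminescence signal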
Cytochrome P450 2C19 = Cytochrome P450 2C19 (Homo sapiens, UniProt P33261); experiment: Cytochrome panel assay with activity outcomes. Panel member name: p450-cyp2c19 Compounds with AC50 equal or less than 10 uM are considered active; assay type: functional
Chain of Cytochrome P450 2C19 (P33261 whole entry): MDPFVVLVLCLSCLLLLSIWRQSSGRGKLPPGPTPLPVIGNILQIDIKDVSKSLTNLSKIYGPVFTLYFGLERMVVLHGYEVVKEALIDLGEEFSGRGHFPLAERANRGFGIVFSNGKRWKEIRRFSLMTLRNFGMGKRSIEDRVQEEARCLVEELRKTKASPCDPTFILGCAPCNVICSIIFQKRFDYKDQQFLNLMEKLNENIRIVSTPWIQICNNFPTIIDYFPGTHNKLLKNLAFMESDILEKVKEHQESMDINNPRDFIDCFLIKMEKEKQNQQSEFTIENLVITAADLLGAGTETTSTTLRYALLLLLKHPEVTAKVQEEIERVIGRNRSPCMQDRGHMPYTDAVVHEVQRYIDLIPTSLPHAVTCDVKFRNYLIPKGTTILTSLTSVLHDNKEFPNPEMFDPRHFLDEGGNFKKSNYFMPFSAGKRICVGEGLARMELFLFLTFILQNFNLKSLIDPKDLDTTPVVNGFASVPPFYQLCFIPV

Chain of Luciferin 4-monooxygenase (P08659 whole entry): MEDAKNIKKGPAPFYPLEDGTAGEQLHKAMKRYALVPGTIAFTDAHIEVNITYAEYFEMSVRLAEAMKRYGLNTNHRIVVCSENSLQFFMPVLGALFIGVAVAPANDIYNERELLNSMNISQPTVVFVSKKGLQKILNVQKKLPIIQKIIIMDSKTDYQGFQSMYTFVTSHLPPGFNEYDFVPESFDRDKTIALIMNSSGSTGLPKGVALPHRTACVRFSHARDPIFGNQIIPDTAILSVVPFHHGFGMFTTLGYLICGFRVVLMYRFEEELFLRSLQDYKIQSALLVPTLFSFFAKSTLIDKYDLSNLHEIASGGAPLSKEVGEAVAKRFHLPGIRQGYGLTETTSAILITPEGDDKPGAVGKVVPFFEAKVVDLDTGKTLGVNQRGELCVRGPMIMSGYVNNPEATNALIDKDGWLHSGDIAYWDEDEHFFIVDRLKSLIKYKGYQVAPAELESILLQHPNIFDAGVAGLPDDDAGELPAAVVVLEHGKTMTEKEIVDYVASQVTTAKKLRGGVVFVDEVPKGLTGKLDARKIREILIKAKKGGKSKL
Chain of Voltage-dependent T-type calcium channel subunit alpha-1H (O95180 whole entry): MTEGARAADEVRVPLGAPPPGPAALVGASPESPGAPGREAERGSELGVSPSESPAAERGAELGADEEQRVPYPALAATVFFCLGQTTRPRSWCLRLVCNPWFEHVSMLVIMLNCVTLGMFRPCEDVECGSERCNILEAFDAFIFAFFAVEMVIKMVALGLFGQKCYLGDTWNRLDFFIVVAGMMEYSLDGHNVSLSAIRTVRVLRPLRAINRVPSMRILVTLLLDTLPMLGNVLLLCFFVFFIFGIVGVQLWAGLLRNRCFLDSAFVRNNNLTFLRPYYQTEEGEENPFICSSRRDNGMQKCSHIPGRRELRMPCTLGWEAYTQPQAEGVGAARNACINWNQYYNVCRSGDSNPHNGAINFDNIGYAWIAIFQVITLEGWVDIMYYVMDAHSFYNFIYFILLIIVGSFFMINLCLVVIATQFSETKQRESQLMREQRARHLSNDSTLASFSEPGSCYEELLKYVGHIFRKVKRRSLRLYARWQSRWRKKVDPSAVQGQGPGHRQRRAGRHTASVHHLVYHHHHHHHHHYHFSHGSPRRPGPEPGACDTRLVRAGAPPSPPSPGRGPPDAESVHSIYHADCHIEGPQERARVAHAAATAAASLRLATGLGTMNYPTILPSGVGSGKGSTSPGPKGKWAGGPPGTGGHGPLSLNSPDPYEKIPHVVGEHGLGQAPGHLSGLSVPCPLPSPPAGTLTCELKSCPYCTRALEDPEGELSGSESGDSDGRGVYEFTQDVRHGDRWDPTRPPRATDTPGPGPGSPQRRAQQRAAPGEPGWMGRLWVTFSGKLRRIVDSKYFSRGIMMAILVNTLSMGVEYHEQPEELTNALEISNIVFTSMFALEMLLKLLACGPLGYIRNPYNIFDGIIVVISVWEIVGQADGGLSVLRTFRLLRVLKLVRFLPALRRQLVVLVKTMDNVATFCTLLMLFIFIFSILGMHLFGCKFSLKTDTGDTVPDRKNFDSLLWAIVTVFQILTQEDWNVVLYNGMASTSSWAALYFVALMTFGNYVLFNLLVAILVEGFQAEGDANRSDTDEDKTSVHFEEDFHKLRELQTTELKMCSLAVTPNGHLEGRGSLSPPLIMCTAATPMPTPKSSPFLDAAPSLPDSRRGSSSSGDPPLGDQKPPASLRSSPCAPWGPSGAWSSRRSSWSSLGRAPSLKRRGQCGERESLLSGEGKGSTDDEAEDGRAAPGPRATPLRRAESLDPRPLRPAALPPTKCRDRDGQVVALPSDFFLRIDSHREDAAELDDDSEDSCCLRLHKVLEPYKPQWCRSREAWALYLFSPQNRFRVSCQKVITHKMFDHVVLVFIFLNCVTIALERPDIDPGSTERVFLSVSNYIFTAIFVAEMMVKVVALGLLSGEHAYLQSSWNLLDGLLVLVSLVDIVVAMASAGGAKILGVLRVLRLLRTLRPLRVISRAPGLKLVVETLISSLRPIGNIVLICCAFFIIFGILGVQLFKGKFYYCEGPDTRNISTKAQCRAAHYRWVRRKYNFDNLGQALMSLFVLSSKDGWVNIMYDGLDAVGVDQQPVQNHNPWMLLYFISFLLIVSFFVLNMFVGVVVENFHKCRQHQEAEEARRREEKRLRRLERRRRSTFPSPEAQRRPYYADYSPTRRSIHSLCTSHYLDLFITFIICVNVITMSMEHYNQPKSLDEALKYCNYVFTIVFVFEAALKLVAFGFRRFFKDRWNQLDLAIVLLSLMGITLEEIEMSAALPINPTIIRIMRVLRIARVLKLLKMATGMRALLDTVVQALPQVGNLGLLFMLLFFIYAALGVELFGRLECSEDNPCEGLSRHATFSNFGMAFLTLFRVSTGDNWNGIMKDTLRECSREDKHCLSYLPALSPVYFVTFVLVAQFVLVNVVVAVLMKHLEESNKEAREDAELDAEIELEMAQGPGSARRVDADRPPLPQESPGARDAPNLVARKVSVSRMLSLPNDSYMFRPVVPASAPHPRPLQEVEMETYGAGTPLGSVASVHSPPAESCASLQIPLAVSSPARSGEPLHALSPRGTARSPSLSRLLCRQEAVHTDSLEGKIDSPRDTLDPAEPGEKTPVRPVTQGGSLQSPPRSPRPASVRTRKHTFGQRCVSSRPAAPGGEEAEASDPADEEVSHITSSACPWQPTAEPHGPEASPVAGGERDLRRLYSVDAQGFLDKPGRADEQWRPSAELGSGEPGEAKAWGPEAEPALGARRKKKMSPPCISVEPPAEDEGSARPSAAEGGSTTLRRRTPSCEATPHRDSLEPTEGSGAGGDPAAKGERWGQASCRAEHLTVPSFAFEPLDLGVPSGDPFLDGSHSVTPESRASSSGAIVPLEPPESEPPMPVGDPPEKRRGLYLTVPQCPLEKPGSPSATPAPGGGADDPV
Chain of Polyadenylate-binding protein 1 (P11940 whole entry): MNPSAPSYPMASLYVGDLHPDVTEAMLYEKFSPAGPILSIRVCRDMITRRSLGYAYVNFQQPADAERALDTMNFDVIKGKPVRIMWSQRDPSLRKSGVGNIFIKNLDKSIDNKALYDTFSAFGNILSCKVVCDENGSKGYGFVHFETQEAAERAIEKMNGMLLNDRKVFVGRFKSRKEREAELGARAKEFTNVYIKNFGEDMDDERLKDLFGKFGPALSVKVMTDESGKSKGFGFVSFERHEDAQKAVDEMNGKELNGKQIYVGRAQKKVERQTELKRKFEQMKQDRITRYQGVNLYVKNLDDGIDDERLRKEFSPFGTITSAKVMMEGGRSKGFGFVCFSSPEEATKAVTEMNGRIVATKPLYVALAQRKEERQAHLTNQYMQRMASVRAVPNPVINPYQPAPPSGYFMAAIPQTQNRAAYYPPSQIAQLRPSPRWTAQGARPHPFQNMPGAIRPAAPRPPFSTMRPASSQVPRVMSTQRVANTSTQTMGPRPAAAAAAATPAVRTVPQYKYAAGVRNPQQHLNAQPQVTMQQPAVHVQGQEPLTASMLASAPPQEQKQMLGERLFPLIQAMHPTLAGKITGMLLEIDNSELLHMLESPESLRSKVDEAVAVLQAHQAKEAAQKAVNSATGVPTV
Chain of Neurotensin receptor type 1 (P30989 whole entry): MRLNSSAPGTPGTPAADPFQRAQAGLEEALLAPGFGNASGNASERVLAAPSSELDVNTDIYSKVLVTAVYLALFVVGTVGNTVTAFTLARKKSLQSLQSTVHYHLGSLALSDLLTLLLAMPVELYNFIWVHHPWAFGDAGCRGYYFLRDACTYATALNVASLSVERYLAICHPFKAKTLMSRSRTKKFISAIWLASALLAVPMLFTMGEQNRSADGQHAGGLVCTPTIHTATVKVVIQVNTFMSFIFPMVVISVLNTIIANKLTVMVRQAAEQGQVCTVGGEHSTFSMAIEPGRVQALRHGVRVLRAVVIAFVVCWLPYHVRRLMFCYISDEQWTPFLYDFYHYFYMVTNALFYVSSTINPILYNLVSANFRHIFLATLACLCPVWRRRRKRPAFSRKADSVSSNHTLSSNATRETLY
Chain of G-protein coupled receptor 35 (Q9HC97 whole entry): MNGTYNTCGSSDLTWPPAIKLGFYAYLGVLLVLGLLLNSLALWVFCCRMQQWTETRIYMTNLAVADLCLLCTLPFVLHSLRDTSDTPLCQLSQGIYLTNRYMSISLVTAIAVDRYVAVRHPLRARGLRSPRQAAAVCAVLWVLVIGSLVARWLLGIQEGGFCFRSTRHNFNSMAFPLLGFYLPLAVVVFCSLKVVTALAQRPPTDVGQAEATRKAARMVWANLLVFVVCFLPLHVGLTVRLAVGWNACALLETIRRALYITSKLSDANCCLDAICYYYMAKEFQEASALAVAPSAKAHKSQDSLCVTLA

SMILES: CCCSc1nnc(NC(=O)Nc2ccccc2)s1
- IC50 [1]: > 100 µM (inactive)
- EC50 [2]: > 300 µM (not active)
- EC50 [3]: > 300 µM (not active)
- IC50 [4]: > 100 µM (inactive)

SMILES: O=C(Nc1cccc(NC(=O)c2cccs2)c1)c1ccc(Br)cc1
- IC50 [5]: 6.65 µM (active)
- IC50 [6]: > 111 µM (not active)

SMILES: Cc1cc(C)c2c(c1)/C(=C/C(=O)c1ccc(Br)s1)C(=O)N2
- AC50 [7]: 2.22 µM (active)
- EC50 [8]: 6.24 µM (active)

SMILES: O=C(Nc1ccc(N2CCCC2)c(Cl)c1)c1ccco1
- EC50 [9]: < 0.2 µM (active)
- EC50 (HT-1080): > 50 µM (not active)

SMILES: c1ccc(-c2noc(CSc3nnnn3-c3ccccc3)n2)cc1
- EC50 [10]: 8.32 µM (active)

SMILES: COc1ccc(NC(=O)c2ccc(C(=O)Nc3ccc(OC)cc3OC)cc2)c(OC)c1
- IC50 [5]: 19.2 µM (not active)
- IC50 [6]: > 111 µM (not active)

SMILES: CCC(=O)Nc1ccc(C(=O)Nc2ccc3c(c2)C(=O)N(CC2CCCO2)C3=O)cc1 (stereo unspecified)
- IC50 [5]: 6.54 µM (active)
- IC50 [6]: > 111 µM (not active)

SMILES: CCOC(=O)c1cnn(-c2ccccc2)c1-n1cccc1C(=O)C(=O)Nc1ccc(F)cc1
- EC50 [10]: 6.1 µM (active)

SMILES: COc1ccc(O)c(C(=O)CC(=O)c2ccccc2)c1
- EC50 [9]: 5.71 µM (active)
- EC50 (HT-1080): > 50 µM (not active)

SMILES: CCOC(=O)C1CCN(c2ncnc3c2cnn3-c2ccc(Cl)cc2)CC1
- IC50 [11]: > 80 µM (inactive)

SMILES: Cc1nc2cc(-c3cccc(F)c3)nn2c(C)c1CCC(=O)N1CCC2(CC1)OCCO2
- EC50 [12]: 10.1 µM (active)
- EC50 [13]: 16.6 µM (active)
- EC50 [14]: 15.4 µM (active)
- IC50 [11]: > 80 µM (inactive)

SMILES: CCN(CC)Cc1c(O)ccc2c(C)c(CC(=O)OC)c(=O)oc12
- IC50 [1]: > 100 µM (inactive)
- IC50 (Aminopeptidase N): 40.4 µM (active)
- IC50 [4]: > 100 µM (inactive)

SMILES: COc1cc2c3nnc(-c4ccc(F)cc4)c-3cn(Cc3cccc(F)c3)c2cc1OC
- EC50 [8]: 3.59 µM (active)

SMILES: CCOc1ccc(-c2cnc3n2CCC3)cc1
- CC50 [15]: > 40 µM (active)

SMILES: O=C1NC(=O)N(Cc2ccc(F)cc2)C(=O)/C1=C/Nc1ccc(C(=O)O)cc1
- IC50 (Coagulation factor XII): > 50 µM (inactive)

SMILES: CCN1C(=O)c2cccc3c(S(=O)(=O)N4CCC(C)CC4)ccc1c23
- IC50 [11]: > 80 µM (inactive)

SMILES: CC(C)CSC1=NSC2=NC(=O)/C(=C\c3coc4ccccc4c3=O)C(=N)N12
- IC50 [16]: 23.3 µM (inactive)

SMILES: Cc1ccc(NC(=O)c2ccc(Cl)c(S(=O)(=O)N3CCc4ccccc43)c2)nc1
- AC50 (HeLa): 342 µM (active)

SMILES: CCOC(=O)CSc1snnc1-c1ccccc1
- IC50 (Coagulation factor XII): > 50 µM (inactive)

SMILES: Cc1ccc(/C(O)=C/C2=NCC(C)NC2=O)cc1 (stereo unspecified)
- EC50 [9]: > 100 µM (not active)
- EC50 (HT-1080): > 50 µM (not active)
- AC50 (Cytochrome P450 2C19): inconclusive
